Measured values reported in PMC7349874, “High Content Screening Using New U2OS Reporter Cell Models Identifies Harmol Hydrochloride as a Selective and Competitive Antagonist of the Androgen Receptor” (Cells, 2020).
Structures can show the parent of a compound that is named as a salt.

Columns and labels:
DU145 cells = experiment: Spheroid growth (CellTiter-Glo), DU145; format: cell-based, human; settings: 7 days, AR negative cells
[1] = biological target: T1, glucocorticoid receptor (GR) (Homo sapiens, UniProt P04150); experiment: Transactivation assay in HMLN GR cells; format: cell-based; settings: 16 h, antagonism in the presence of 5 nM dexamethasone
T1 construct: expressed in transfected cells
T1 sequence (P04150 1-777): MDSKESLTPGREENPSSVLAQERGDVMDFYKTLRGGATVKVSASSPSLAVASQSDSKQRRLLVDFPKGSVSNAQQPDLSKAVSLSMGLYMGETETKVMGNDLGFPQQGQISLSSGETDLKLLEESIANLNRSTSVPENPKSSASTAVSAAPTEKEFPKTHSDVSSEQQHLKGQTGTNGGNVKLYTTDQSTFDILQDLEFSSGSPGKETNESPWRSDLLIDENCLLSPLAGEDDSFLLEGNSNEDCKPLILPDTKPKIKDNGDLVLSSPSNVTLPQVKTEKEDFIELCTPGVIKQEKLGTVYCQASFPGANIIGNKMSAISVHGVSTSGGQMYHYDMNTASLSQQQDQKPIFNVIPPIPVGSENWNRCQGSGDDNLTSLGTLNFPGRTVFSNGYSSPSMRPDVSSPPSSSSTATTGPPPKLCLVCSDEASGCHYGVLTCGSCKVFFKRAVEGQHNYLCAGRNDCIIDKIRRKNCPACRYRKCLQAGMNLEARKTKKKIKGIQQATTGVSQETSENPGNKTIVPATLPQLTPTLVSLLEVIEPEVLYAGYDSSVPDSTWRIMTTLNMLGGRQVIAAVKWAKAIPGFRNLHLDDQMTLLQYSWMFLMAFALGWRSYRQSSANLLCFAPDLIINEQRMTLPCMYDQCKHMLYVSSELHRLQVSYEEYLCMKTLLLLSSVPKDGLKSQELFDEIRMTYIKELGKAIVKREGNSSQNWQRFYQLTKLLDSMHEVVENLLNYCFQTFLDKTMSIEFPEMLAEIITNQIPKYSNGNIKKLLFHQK
Description: (§1) HG5LN MR and HG5LN PXR luciferase reporter cell lines were obtained by stable expression of individual ligand binding domains fused to GAL4 DNA binding domain in HG5LN (HeLa GAL4REx5-luciferase) cells, as previously described. HELN PR cells were obtained by stably expressing PR with the ERα DNA binding domain in HELN (HeLa ERE-luciferase) cells and HMLN GR cells were obtained by stable co-transfection of HeLa cells with a plasmid encoding for a glucocorticoid responsive gene (MMTV-Luc-SV-Neo) and a glucocorticoid receptor expressing plasmid, as previously described.
(§2) Agonistic activities were evaluated in HMLN GR, HELN PR, HG5LN MR, and HG5LN PXR cells, using dexamethasone 100 nM, R5020 100 nM, aldosterone 100 nM, and SR12813 3 μM as a positive control, respectively. […] RU486 was used as a control antagonist for GR and PR, and spironolactone for MR.
(§3) HMLN glucocorticoid receptor (GR), HG5LN mineralocorticoid receptor (MR), HELN progesterone receptor (PR) and HG5LN PXR cells were used to evaluate the antagonistic effect of the tested compounds on (A) the glucocorticoid receptor (GR), (B) the mineralocorticoid receptor (MR), (C) the progesterone receptor (PR) and (D) the agonistic activity towards the pregnane X receptor (PXR). […]

[2] = biological target: T2, mineralocorticoid receptor (MR) (Homo sapiens, UniProt P08235); experiment: Transactivation assay in HG5LN MR cells; format: cell-based; settings: 16 h, 1 nM aldosterone, highest concentrations used (>1 µM)
T2 construct: expressed in transfected cells
T2 sequence (P08235 726-964 limits assumed): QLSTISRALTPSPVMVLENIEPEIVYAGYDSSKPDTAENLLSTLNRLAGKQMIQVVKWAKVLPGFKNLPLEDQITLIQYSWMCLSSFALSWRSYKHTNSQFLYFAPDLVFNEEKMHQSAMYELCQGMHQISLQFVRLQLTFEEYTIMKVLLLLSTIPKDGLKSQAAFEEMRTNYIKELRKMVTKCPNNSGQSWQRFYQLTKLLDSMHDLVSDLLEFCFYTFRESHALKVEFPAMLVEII
Description: as §1, §2, §3

[3] = test system: AR target genes TMPRSS2, FKBP5, PSA; experiment: RT-qPCR of AR target genes in VCaP cells; settings: 3 µM, 24 h, 1 nM R1881
Description: LNCaP and VCaP cells were seeded in 6-well plates (10^6 and 2 × 10^6 cells per well, respectively) and, 48 h later, complete medium was replaced by charcoal-stripped medium with 5% FBS. Cells were then treated for 24 h with the tested compounds, and RNA extraction was performed using the Quick RNA Miniprep kit (Zymo-Research, Irvine, CA, USA), according to the manufacturer’s protocol. Reverse transcription was performed with 0.5 µg total RNA using the SuperScript III reverse transcriptase kit (ThermoFisher, Waltham, MA, USA), according to the manufacturer’s protocol, in a final volume of 20 µL. The levels of genes transcripts were measured by real time PCR using a LightCycler 480 system (Roche Life Science, Penzberg, Germany) in the presence of SYBRGreen (SYBR® Premix Ex Taq^tm) and the following primers: FKBP5, sense 5′-[sequence]-3′; antisense 5′-[sequence]-3′; PSA, sense 5′-[sequence]-3′; antisense 5′-[sequence]-3′; TMPRSS2, sense 5′-[sequence]-3′, antisense 5′-[sequence]-3′; GR, sense 5′-[sequence]-3′, antisense 5′-[sequence]-3′; HPRT, sense 5′-[sequence]-3′; antisense 5′-[sequence]-3′; GAPDH, sense 5′-[sequence]-3′; antisense 5′-[sequence]-3′. Expression levels were evaluated with the ΔΔCt method and were normalized to GAPDH. Results are expressed as mRNA expression, relative to control (untreated cells), and are the mean ± SEM of 3 independent experiments.

With `Cc1nccc2c1[nH]c1cc(O)ccc12` [harmol hydrochloride, Harmol hydrochloride monohydrate] the “Growth of DU145 spheroids” value (DU145 cells) was “no effect”, the “Activity towards GR” value [1] was “did not show any significant activity” and the “Antagonistic activity towards MR” value [2] was “small antagonistic activity”. For the same molecule, the “Expression of the AR non-target gene HPRT” value [3] was “unaffected” and the “R1881-mediated expression of AR target genes TMPRSS2, FKBP5, PSA” value [3] was “significant decrease”.
